We go through 4 molecules from US6797285B1, “Leaves of Cajanus Cajan(L.) Millsp and extract, formulation and uses thereof” (priority 1999, dated 2004).

One assay has as its system threshold of pain. Description: hot-plate test on mouse. It is filed as in vivo, NIH female mice. Here is the method:
Adjusted the temperature of water bath box to 55° C.±1° C. I.C. Immersed one big beaker in the water bath and put mice into the beaker. Recorded the period from the time when animals were put into the beaker to that when animals licked feet due to pain, and defined the period as the threshold of pain of that mouse.
Screened out the mice whose threshold of pain were in the range of 5-30 seconds, and divided them randomly into 5 groups including control group, indometacin-treated group and three Shengmaichenggu capsule-treated groups (The dosage are shown in table 11). Administered medicaments to animals by gavage for continuous 7 days. Determined the threshold of pain at the time of 30 minutes and 60 minutes after the administration at day 7 respectively, and observed the changes in the threshold of pain after administration. Room temperature should be controlled in the range of 15-20° C.

Assay [1] deals with mouse pinnal inflammation caused by dimethylbenzene. Kind of assay: mouse pinnal inflammation induced by dimethylbenzene. It is filed as in vivo, NIH mice. To be noted: 0.013 g/kg/day, gavage 7 days. The protocol:
Divided the mice into 5 groups randomly with 8 mice each, i.e. control group, indometacin-treated group and three Shengmaichenggu capsule-treated groups (dosages are shown in table 12). The mice were administered medicaments in different concentration by gavage. […] Killed the mice after […] by decollation. Cut out the equal area at the same position from both ears of the mouse with perforator, and weighted with torsion balance. The swell degree is defined as the weight difference of subtracting the weight of the right ear from that of the left. Analyzed the data of swell degree of the control group and the treated groups statistically.

Assay [2] relates to mouse pain induced by acetic acid. Description: writhing response on mouse (acetic acid). The class given is in vivo, NIH mice. To be noted: 0.013 g/kg/day, gavage 7 days. Here is the method: Divided the mice into 5 groups randomly, i.e. control group (0.2 ml/10 g distilled water), indometacin-treated group (0.013 g/kg) and three Shengmaichenggu capsule-treated groups (dosages are shown in table 10). The mice were administered by gavage for 7 days. […] Recorded the first time when the writhing response appeared caused by pain for each mouse, the number of the writhing response appeared in 10 minute and the analgesic percent.
(In general: In writhing tests, fewer writhes than in controls are read as antinociception.)

For the next assay, the system named is tampon-induced granuloma. Kind of assay: granuloma induced by tampon on rat. It is filed as in vivo, SD rats. To be noted: 25 mg/kg/day, gavage. Here is the method:
The rats were divided into 5 groups randomly with 12 rats each group, i.e. control group, prednisone acetate-treated group and three Shengmaichenggu capsule-treated groups. An incision was made aseptically along the dorsimeson of a rat anesthetized by pentobarbital sodium and a sterilized tampon was imbedded into the incision and sewed up. The treated groups were administered by gavage 3 days before surgery until the day 7 after surgery. At the 8th day after surgery, the rats were killed by decollation. Avulsed out the tampon-caused granuloma tissue and dried it at 60-90° C. in a oven for 1 hour. Then weighted and subtracted the initial weight of tampon to get the net weight of granuloma tissue. Compared the granuloma weight among these groups and analyzed the results statistically.

The next assay relates to monocytophagous function. Kind of assay: monocytophagous function of mouse (china ink clearance), prednisone acetate immunosuppression. It is filed as in vivo, NIH mice. To be noted: 0.04 g/kg/day, gavage 20 days. The protocol:
(§1) The mice were divided into 6 groups randomly, i.e. control group, modeled group, levamisole-treated group, and three Shengmaichenggu capsule-treated groups (dosages are shown in table 14). […] Administered distilled water to the control group by gavage in the same period. At the time of 30 minutes after administering on the day 20, injected […] into tail vein at a dosage of 0.01 ml/l10 g. At the 2th and 12th minute after injection, took 10 μl orbit blood and put into 3 ml 0.1% Na2CO3 solution and shook up. Detected optical density (OD) by colorimetric analysis in 722-grating photometer (λ=620). […] The animals were killed by dislocating cervical vertebra. The liver and spleen were weighted respectively. Determined the weight of immune organs of every mouse according to the immune organ weighting method. Calculated the immune organ index and made a statistical analysis for the result.

Assay [3] relates to immune organs (thymus, spleen). Description: immune organ coefficient of mouse, prednisone acetate immunosuppression. Particulars: Dosage/kg/day 0.04. The class given is in vivo, NIH mice. Here is the method: as §1
Another assay relates to serum hemolysin. Description: hemolysin content of mouse immunised by chicken blood cells. It is filed as in vivo, NIH mice. Particulars: 0.04 g/kg/day. Here is the method: The grouping and administering scheme was the same as that of the above-mentioned Experiment of nonspecific immunological functions. At the first day of administration, injected 5% suspension of chicken red blood cells to abdominal cavity of mice at a dosage of 0.2 ml/one mouse. Seven days after immunization, took blood from eyeball and centrifuged. The serum was diluted 100 times with physiological saline. 1 ml of the diluted serum was mixed with 0.5 ml of 5% suspension of chicken red blood cells and 0.5 ml of 10% complement. After incubation in an incubator at 37° C. for 30 minutes, the reaction was terminated by putting the mixture into a 0° C. refrigerator.
The formulated test solution was centrifuged. Took the supernatant and detected optical density (OD) by colorimetric analysis in 722-grating photometer (λ=620). Set up a control group free of serum and took the supernatant of the centrifuged test solution of this group as the “0” basis for colorimetric assay. Took “OD” as the index for quantifying the serum hemolysin and analysed the data statistically.

In a further assay the test system is mice lymphocyte. Description: cellular immunity test: transformation reaction of mice lymphocyte (PHA). It is filed as in vivo, NIH mice. To be noted: 0.04 g/kg/day. The protocol:
The mice were divided into 6 groups randomly, i.e. control group, model group levamisole-treated group, and three Shengmaichenggu capsule-treated groups at different dosages (dosages are shown in table 17). Administered by gavage once a day for continuous 7 days. After the last administration, all the animals were immunized by injecting 5% suspension of chicken red blood cells to abdominal cavity at a dosage of 0.2 ml/one mouse. Then the animals were injected PHA to abdominal cavity at a dosage of 0.025 ml/10 g for continuous 3 days. All groups except control group were administered prednisone acetate at a dosage of […] body weight by gavage for continuous 7 days. At the time of 12 hours after last administration, the experiment was carried out according to the Experiment of the content of mouse hemolysin mentioned above in which chicken blood cells were used as immunogen.

A further assay has as its system acute blood stasis model. Description: hermorheology index of rat acute blood stasis model. It is filed as in vivo, SD rats. Particulars: 90 mg/kg/day, gavage 20 days. The protocol: The rats were divided into 6 groups randomly, i.e. normal control group, blood stasis model group, Tetramethylpyrazine phosphate-treated group and three Shengmaichegngu capsule-treated groups (the dosage were shown in table 9). The control group and the blood stasis model group were administered equal volume of distilled water by gavage. Every treated groups were administered liquor drug with different concentrations at a dosage of 2 ml/100 g weight/day, once daily at a fixed time for 20 days. When 24 hours after the last administration, animals except the normal control group were injected epinephrine hydrochloride hypodermically for two times (0.8 mg/kg) with an interval of 3 hours. The rats were immersed in water at 4±1° C. for 5 minutes at the time of 1.5 hour after the first injection of epinephrine hydrochloride, then the animals fast. In the next morning, eyeball blood was taken from anesthetized animals (injected pentobarbital sodium to abdominal cavity at a dosage of 30 mg/kg ). Hermorheology indexes were determined which include specific viscosity of whole blood, specific viscosity of plasma, erythrocyte sedimentation and hematokrit.

Marks after values point to notes of the source that are not given here.

Take `COc1ccc2c(c1)c(CC(=O)O)c(C)n2C(=O)c1ccc(Cl)cc1` [Indometacin, indometacin]: the “Threshold of pain at different time after administration, 30 min” value in the assay on threshold of pain (0.013 g/kg/day, day 7, 30 min) is 28.07 ± 6.67 S. Further, the “Threshold of pain at different time after administration, 60 min” value in the assay with threshold of pain (0.013 g/kg/day, day 7, 60 min) is recorded as 24.64 ± 6.49 S. Besides, the “Threshold of pain before administration” value with threshold of pain (baseline, group 0.013 g/kg/day) is reported as 18.93 ± 5.41 S. Also, in assay [1], the Swell degree was determined as 0.5500 ± 0.258 mg. Moreover, in assay [2], the Analgesic percent is given as 75## %, the “Number of writhing mice” value is reported as 2## and the “The First time when the writhing response appeared” value is reported as 572.75 ± 182.13 s.

On to `CC(=O)OCC(=O)[C@@]1(O)CC[C@H]2[C@@H]3CCC4=CC(=O)C=C[C@]4(C)[C@H]3C(=O)C[C@@]21C` [Prednisone acetate, prednisone acetate], for which the “Net weight of granuloma” value in the assay with tampon-induced granuloma was 33.45 ± 13.10 mg.

Turning to `c1ccc([C@H]2CN3CCSC3=N2)cc1` [Levamisole, levamisole], in the assay on monocytophagous function, the “Phagocytic activity α” value was 5.1964 ± 0.7761 and the “Phagocytic count K” value was determined as 0.0273 ± 0.00852. In [3], the “Immune organ coefficient, Spleen” value was found to be 52.82 ± 0.887 mg/kg and the “Immune organ coefficient, Thymus” value amounted to 1.501 ± 0.334 mg/kg. In addition, in the assay with serum hemolysin, the “OD (Optical density), hemolysin content” value is recorded as 0.7370 ± 0.1444. In addition, in the assay on mice lymphocyte, the “Transformation rate of lymphocyte” value came to 0.7370 ± 0.03234 %, the limphoblast was 0.4310 ± 0.05043 % and the transition state cells is reported as 0.3050 ± 0.0495 %.

As to `Cc1nc(C)c(C)nc1C.O=P(O)(O)O` [Tetramethylpyrazine phosphate], in the assay on acute blood stasis model, the Erythrocyte sedimentation was found to be 1.80 ± 0.27; the Hematokrit worked out at 43.55 ± 2.39; the “Specific viscosity of plasma” value came out at 1.95 ± 0.08; the “Specific viscosity of whole blood, High shearviscosity coefficient” value came out at 5.59 ± 0.40. The “Specific viscosity of whole blood, Lower shearviscosity coefficient” value in the assay on acute blood stasis model was determined as 20.87 ± 2.63.
